From patent US10017509B2, “Macrocylic pyrimidine derivatives” (Janssen Pharmaceutica NV, priority 2014, dated 2018)

What was measured:
EF2K [1] = biological target: T1, EF2K (Homo sapiens, UniProt O00418); experiment: Biochemical EF2K lysate-based kinase assay (AlphaLISA p-eEF2 Thr56); conditions: pIC50 = -log IC50 (M), read-out: eEF2K_C_alphalisa pIC50 (converted)
T1 construct: host or cells: LN-229 cell lysate
T1 sequence (O00418 1-725): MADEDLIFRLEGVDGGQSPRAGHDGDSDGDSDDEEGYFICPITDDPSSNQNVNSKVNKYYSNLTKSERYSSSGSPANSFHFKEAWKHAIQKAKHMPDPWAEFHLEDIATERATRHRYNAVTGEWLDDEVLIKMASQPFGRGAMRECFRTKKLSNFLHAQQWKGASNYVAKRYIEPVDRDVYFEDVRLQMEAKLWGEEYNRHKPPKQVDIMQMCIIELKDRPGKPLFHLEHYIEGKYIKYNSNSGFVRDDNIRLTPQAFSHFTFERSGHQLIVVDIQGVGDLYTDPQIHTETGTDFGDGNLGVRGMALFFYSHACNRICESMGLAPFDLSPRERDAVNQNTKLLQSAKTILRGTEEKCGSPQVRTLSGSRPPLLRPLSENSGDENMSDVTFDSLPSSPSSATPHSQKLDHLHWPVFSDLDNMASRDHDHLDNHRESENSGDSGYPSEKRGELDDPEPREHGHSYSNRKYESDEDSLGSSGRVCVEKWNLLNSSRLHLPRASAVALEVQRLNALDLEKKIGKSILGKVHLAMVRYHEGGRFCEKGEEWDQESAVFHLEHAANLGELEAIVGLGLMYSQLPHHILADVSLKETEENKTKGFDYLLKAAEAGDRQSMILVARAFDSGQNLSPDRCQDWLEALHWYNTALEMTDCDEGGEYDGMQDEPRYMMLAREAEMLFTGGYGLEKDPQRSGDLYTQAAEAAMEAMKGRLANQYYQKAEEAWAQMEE
Outline: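 LN-229 glioblastoma lysate supplied both EF2K and eEF2 substrate; compound incubated 15 min at room temperature in pH 6.6 buffer with 10 mM Mg2+ and 10 mM ATP. EDTA-stopped; phospho-eEF2 Thr56 quantified by AlphaLISA sandwich, final read after overnight. Values as pIC50.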

EF2K [2] = biological target: T1, EF2K; experiment: EF2K cell-based assay (P-EF2 AlphaLISA, 2-deoxyglucose stimulated MCF10A cells); conditions: 2.5 mM 2-deoxyglucose stimulated, P-EF2 Thr56, pIC50 = -log IC50 (M), read-out: eEF2K_C_PThr56 pIC50 (converted)
Outline: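 MCF10A cells, after 24 h culture, treated 1 h with compound then stimulated 4 h with 2.5 mM 2-deoxyglucose to activate AMPK. Lysates in M-PER with protease/phosphatase inhibitors assayed for P-EF2 by AlphaLISA; pIC50 = −log IC50 (M).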

[3] = biological target: Vps34 (PIK3C3 lipid kinase) (Homo sapiens, UniProt Q8NEB9); experiment: Biochemical Vps34 lipid kinase assay (ADP-Glo); conditions: for remaining activity at 1 µM: 1 h, single dose 1 μM compound, residual activity compared to control (DMSO), read-out: VPS34_1microM_% of cntrl; for IC50: serial half-log dilution 10 μM to 0.3 nM, pIC50 = -log IC50 (M)
Outline: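 ADP-Glo luminescence assay of PIK3C3 (7.6 nM) with 50 µM substrate and 20 µM ATP (apparent Km) in HEPES pH 7.5, 100 mM NaCl, 3 mM MnCl2, CHAPS, DTT; 60 min, 30 °C. Single dose 1 µM (residual activity vs DMSO) or half-log series 10 µM-0.3 nM giving pIC50.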

Chain of Vps34 (PIK3C3 lipid kinase) (Q8NEB9 whole entry, species assumed): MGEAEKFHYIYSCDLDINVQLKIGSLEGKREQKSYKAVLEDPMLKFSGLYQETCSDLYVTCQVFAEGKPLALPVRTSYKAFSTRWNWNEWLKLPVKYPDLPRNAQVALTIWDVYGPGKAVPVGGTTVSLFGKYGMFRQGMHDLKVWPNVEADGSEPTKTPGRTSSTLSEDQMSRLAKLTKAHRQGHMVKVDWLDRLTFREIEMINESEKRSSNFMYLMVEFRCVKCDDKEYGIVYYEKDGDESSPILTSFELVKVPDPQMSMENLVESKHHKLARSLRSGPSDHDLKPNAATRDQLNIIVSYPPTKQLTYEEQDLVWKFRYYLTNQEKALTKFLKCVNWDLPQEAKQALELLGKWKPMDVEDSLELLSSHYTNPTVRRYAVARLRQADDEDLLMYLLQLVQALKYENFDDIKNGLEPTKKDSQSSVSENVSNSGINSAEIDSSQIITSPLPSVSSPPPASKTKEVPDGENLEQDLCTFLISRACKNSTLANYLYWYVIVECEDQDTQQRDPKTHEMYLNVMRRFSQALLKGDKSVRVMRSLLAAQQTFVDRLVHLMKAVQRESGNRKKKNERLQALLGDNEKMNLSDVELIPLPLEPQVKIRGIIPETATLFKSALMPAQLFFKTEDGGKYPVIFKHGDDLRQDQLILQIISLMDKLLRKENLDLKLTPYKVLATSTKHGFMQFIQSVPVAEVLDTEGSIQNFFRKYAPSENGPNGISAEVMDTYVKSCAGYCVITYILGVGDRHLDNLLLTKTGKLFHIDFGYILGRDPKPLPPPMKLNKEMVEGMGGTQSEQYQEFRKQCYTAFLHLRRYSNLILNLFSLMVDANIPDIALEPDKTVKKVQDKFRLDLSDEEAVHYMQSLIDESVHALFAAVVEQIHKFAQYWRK

Structure (SMILES)	IC50 (EF2K [1])	IC50 (EF2K [2])	remaining activity at 1 µM [3]	IC50 [3]
CN1CCCNC(=O)CC2CCN(CC2)Cc2cccc(c2)Nc2nccc(n2)-c2ccc1nc2 [Compound 125]	1.58e-05 M	> 3.02e-05 M	28.4%	3.39e-07 M
NC(=O)C1CN2CCN1CC(=O)NCCCNc1ccc(cn1)-c1ccnc(n1)Nc1cccc(c1)C2 (stereo not shown) [Compound 126]	1.74e-07 M	> 3.02e-05 M	4.95%	7.59e-08 M
CN1CCCNc2ccc(cn2)-c2ccnc(n2)Nc2cccc(c2)CN2CCN(CC1=O)C(=O)C2 [Compound 127]	3.72e-06 M	> 3.02e-05 M	19.2%	3.55e-07 M
CN1CCCN(C)c2ccc(cn2)-c2ccnc(n2)Nc2cccc(c2)CN2CCNC(CC1=O)C2 (stereo not shown) [Compound 128]	1.82e-06 M	2.63e-05 M	5.81%	1.02e-07 M
CN1CCCN(C)c2ccc(cn2)-c2ccnc(n2)Nc2cccc(c2)CN2CCN(C)C(CC1=O)C2 (stereo not shown) [Compound 129]	9.55e-07 M	9.33e-06 M	9.26%	4.68e-07 M
O=C1NCCCNc2ccc(cn2)-c2ccnc(n2)Nc2cccc(c2)CN2CCN1CC2 [Compound 130]	> 3.02e-05 M	> 3.02e-05 M	21%	2.4e-07 M
CN1CCN(C)c2ccc(cn2)-c2ccnc(n2)Nc2ccc(O)c(c2)CN2CCN(CC2)CC1=O [Compound 131]	4.57e-07 M	7.59e-06 M	17.3%	1.74e-07 M
O=C1CN2CCN(CC2)Cc2cccc(c2)Nc2nccc(n2)-c2ccc(nc2)CN(C(=O)C(F)(F)F)CCN1 [Compound 132]	6.92e-08 M	3.98e-06 M	7.12%	1.91e-07 M
CS(=O)(=O)N1CCNC(=O)CN2CCN(CC2)Cc2cccc(c2)Nc2nccc(n2)-c2ccc(nc2)C1 [Compound 133]	2.57e-06 M	> 1e-05 M	14.6%	1.48e-07 M
NS(=O)(=O)N1CCNC(=O)CN2CCN(CC2)Cc2cccc(c2)Nc2nccc(n2)-c2ccc(nc2)C1 [Compound 134]	1.29e-06 M	> 1e-05 M	4.78%	6.46e-08 M
